Experimental data published in PMC10096376, “Insecticidal and Synergistic Potential of Three Monoterpenoids against the Yellow Fever Mosquito, Aedes aegypti (Diptera: Culicidae), and the House Fly, Musca domestica (Diptera: Muscidae)” (Molecules, 2023).
Several values for one entry are separate records, joined by “and”; a condition that tells them apart may be missing. Equal entries are not always repeated. Where two headings read alike, the source gives them in different places.

How the values were obtained:
[1] = test system: Aedes aegypti; conditions: for LD10 (95% CI) / LD50 (95% CI) / LD90 (95% CI): 24 h, topical, adult females, susceptible strain
[2] = test system: Aedes aegypti; conditions: for 1-h knockdown Co-Toxicity Factor / 24-h mortality Co-Toxicity Factor / 48-h mortality Co-Toxicity Factor: >+20 potentiation, <−20 antagonism, −20 to +20 additive
Method: (§1) For Ae. aegypti, synergism assays were performed similar to the topical applications described previously, with the following modifications: 2 doses (2 µg/mosquito and 10 µg/mosquito) of each monoterpenoid were applied as synergists, similar to previous studies exploring the synergistic potential of natural products in combination with an intermediate dose-level of insecticide alone.
(§2) Mosquitoes were transferred to deli cups and kept at a controlled temperature and humidity (the same conditions as described for the topical application of insecticides and monoterpenoids alone). Again, a minimum of 3 separate rearing cohorts were used among replicates of each dose combination.
(§3) Dose responses were modeled via probit analysis, and their resulting estimates were obtained. […] A control correction option (OPTC command) was used to account for responses to the vehicle control treatments. Co-toxicity values were calculated by the method of [29]. A co-toxicity factor of >+20 signifies potentiation, <−20 antagonism, and −20 to +20 additive.

[3] = cited from earlier work
[4] = test system: rat; conditions: in vivo; cited from earlier work
[5] = molecular target: T1, acetylcholinesterase (Aedes aegypti, UniProt Q6A2E2); experiment: In vitro inhibition of acetylcholinesterase (Ellman), whole-body homogenate; assay type: biochemical; conditions: Ae. aegypti preparation, corrected for total protein; read-out: IC50 (95% CI)
T1 construct: The supernatant was used as the enzyme source; from tissue; host or cells: whole bodies of adult female Aedes aegypti, Orlando strain; Triton X-100 supernatant
Method: (§4) Acetylcholinesterase inhibition was conducted on homogenates of whole-body Ae. aegypti and M. domestica heads using Ellman’s method. For Ae. aegypti, 10 whole female adults were placed in 2 mL microcentrifuge screw cap tubes with 3–5.2 mm zircon/silica beads and homogenized in 500 μL of sodium phosphate buffer (100 mM, pH 7.8) using a Precellys Evolution bead beater (Bertin Corp., Rockville, MD, USA) set to two 15-s pulses of 5600 rpm. Afterward, 500 μL of Triton X-100 buffer (100 mM sodium phosphate, pH 7.8, 0.6% Triton X-100) was added to each tube (final Triton X-100 concentration: 0.3%), inverted several times to mix up the sample, and then centrifuged at 10,000× g for 4 min at 4 °C. The supernatant was used as the enzyme source. The same process was carried out with M. domestica, except three heads were processed in a 1000:1000 μL sodium phosphate buffer and Triton X-100 buffer in the same manner as just described.
Concentration responses were conducted in the wells of a 96-well, clear, flat-bottomed plate. Inhibitor solutions of methomyl or monoterpenoids were first dissolved in DMSO (dimethyl sulfoxide) and then diluted in sodium phosphate buffer (100 mM, pH 7.8, DMSO concentration of 1%). […]
Dose responses were modeled via probit analysis, and their resulting estimates were obtained. […] Co-toxicity values were calculated by the method of [29]. […]

[6] = molecular target: acetylcholinesterase (Musca domestica, UniProt Q7YWJ9); experiment: In vitro inhibition of acetylcholinesterase (Ellman), head homogenate; assay type: biochemical
Method: as §4
Concentration responses were conducted in the wells of a 96-well, clear, flat-bottomed plate. Inhibitor solutions of methomyl or monoterpenoids were first dissolved in DMSO (dimethyl sulfoxide) and then diluted in sodium phosphate buffer (100 mM, pH 7.8, DMSO concentration of 1%). A volume of 10 μL of the inhibitor solution was added to each well, along with 90 μL of sodium phosphate buffer, and finally 10 μL of homogenate. This was incubated on a plate shaker at 400 rpm for 10 min at room temperature. The final concentrations for methomyl were 100 μM, 10 μM, 1 μM, 100 nM, 10 nM, 1 nM, and 0 nM. For the monoterpenoids, the same range was used except the top concentration was 1 mM and the bottom non-zero concentration was 10 nM. The final concentration of DMSO in all wells was 0.09%.
After the 10-min incubation, 100 μL of Ellman’s reagent prepared in sodium phosphate buffer and each corresponding inhibitor concentration were added to the wells using a multichannel pipette.
as §3

[7] = test system: Musca domestica
[8] = test system: rabbit; conditions: ref 32,33 (L-fenchone), 35,36 (Permethrin), 37 (Methomyl); cited from earlier work
[9] = test system: Musca domestica; experiment: Co-toxicity assay with permethrin (topical); assay type: in vivo
Method: […]. Each dose was formulated in a total volume of 1.5 mL of acetone. A dose of permethrin that produced approximately 50% mortality (18 ng) was used as the treatment. Female flies were sorted into groups of 20 per synergism assay and dosed as previously mentioned (i.e., the same way as in the topical toxicity assays). Flies were assessed for mortality at 24 h.

[10] = test system: rat; conditions: cited from earlier work
[11] = under a mercury lamp; cited from earlier work
[12] = test system: Aedes aegypti; experiment: Co-toxicity assay with permethrin (topical); conditions: for 1-h knockdown Co-Toxicity Factor / 24-h mortality Co-Toxicity Factor: >+20 potentiation, <−20 antagonism, −20 to +20 additive
Method: as §1, §2, §3

[13] = 24 h, topical, adult females, susceptible strain
[14] = 10.2 μg PBO, 70 μg carvone, 190 μg menthone, 80 μg fenchone per fly
[15] = near-sublethal synergist dose + permethrin, >+20 potentiation, <−20 antagonism, −20 to +20 additive
[16] = 10 μg synergist per Ae. aegypti

T1 sequence (Q6A2E2 1-702): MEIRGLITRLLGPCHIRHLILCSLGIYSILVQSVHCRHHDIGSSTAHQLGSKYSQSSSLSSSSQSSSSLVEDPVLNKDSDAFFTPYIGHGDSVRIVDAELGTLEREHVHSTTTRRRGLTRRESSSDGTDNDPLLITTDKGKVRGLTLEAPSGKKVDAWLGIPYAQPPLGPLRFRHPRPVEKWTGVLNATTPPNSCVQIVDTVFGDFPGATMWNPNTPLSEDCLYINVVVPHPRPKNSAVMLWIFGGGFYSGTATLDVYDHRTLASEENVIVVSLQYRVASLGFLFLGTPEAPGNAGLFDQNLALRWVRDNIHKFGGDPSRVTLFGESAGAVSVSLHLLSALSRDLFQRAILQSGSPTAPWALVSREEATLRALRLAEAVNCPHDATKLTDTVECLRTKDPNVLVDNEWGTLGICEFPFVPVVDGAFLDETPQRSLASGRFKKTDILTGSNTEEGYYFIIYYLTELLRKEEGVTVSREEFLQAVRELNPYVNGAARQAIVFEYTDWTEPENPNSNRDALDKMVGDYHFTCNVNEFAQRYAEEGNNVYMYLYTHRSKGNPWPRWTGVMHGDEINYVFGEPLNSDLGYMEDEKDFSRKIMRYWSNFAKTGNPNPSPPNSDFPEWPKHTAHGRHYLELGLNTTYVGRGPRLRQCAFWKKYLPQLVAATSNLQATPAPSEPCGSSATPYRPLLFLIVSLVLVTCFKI
Chain of acetylcholinesterase (Musca domestica, UniProt Q7YWJ9) (Q7YWJ9 81-660): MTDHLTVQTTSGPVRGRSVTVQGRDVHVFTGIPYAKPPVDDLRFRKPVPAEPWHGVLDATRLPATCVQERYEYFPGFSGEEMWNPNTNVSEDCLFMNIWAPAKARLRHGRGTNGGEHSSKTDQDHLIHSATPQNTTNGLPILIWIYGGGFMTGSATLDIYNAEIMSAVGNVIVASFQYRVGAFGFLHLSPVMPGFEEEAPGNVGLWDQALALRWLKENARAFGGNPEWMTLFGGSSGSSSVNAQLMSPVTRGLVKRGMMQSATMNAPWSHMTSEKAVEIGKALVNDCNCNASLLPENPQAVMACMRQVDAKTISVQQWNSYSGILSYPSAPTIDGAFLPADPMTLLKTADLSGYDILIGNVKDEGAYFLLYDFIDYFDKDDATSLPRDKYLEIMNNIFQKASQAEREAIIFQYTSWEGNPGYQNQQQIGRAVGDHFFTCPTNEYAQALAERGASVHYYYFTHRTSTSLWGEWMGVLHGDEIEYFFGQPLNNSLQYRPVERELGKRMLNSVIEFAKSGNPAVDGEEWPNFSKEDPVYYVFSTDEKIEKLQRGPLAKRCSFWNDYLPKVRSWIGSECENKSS

CNC(=O)ON=C(C)SC [Methomyl, methomyl, reference compound]
LD10 (95% CI) [1]: 0.97 (0.27–1.6) a ng/mg body weight | LD50 (95% CI) [1]: 2.7 (1.6–4.3) b ng/mg body weight | LD90 (95% CI) [1]: 7.55 (4.7–22.5) b ng/mg body weight | 1-h% Mean Knockdown ± SEM, Methomyl Alone ([2]; methomyl 6 ng/mosquito): 87.5 ± 9.5% | 24-h% Mean Mortality ± SEM, Methomyl Alone ([2]; methomyl 6 ng/mosquito): 57.5 ± 25.3% | 48-h% Mean Mortality ± SEM, Methomyl Alone ([2]; methomyl 6 ng/mosquito): 65 ± 21.8% | aerobic soil half-life [3]: approximately 14 d | Oral LD50 [4]: 17–24 (rt) mg compound per kg body weight | IC50 [5]: 2500 nM and 1700 nM | inhibition at 100 µM ([6]; at 100 µM, preparation not given, follows the M. domestica values, read-out: inhibition of AChE): 99.4 ± 0.1% | LD50 ([7]; topical, sufficient toxicity not observed at highest doses applied): > 100 ng | Dermal LD50 [8]: 5880 (rb) mg compound per kg body weight

C=C(C)[C@@H]1CC=C(C)C(=O)C1 [Carvone, L-carvone]
LD10 (95% CI) [1]: 3900 (1900–5200) b ng/mg body weight | LD50 (95% CI) [1]: 7300 (6700–7900) c ng/mg body weight | LD90 (95% CI) [1]: 14,200 (11,000–26,600) c ng/mg body weight | times as toxic as fenchone ([1]; at LD10): about 1.9 | times as toxic as fenchone ([1]; at LD50): about 1.5 | times as toxic as fenchone ([1]; at LD90): about 3.0 | 1-h% Mean Knockdown ± SEM, Synergist Alone ([2]; 2 μg applied): 5 ± 5% | 24-h% Mean Mortality ± SEM, Synergist Alone ([2]; 2 μg applied): 5 ± 2.9% | 48-h% Mean Mortality ± SEM, Synergist Alone ([2]; 2 μg applied): 5 ± 2.9% | 1-h% Mean Knockdown ± SEM, Mixture ([2]; 2 μg synergist + methomyl 6 ng/mosquito): 96.7 ± 3.3% | 1-h knockdown Co-Toxicity Factor ([2]; 2 μg synergist + methomyl): 4.5 | 24-h mortality Co-Toxicity Factor ([2]; 2 μg synergist + methomyl): 23 | 48-h mortality Co-Toxicity Factor ([2]; 2 μg synergist + methomyl): 24 | 1-h% Mean Knockdown ± SEM, Synergist Alone ([2]; 10 μg applied): 20 ± 5.8% | 24-h% Mean Mortality ± SEM, Synergist Alone ([2]; 10 μg applied): 7.5 ± 2.5% | 48-h% Mean Mortality ± SEM, Synergist Alone ([2]; 10 μg applied): 15 ± 2.9% | 1-h% Mean Knockdown ± SEM, Mixture ([2]; 10 μg synergist + methomyl 6 ng/mosquito): 100 ± 0% | 1-h knockdown Co-Toxicity Factor ([2]; 10 μg synergist + methomyl): −7 | 24-h mortality Co-Toxicity Factor ([2]; 10 μg synergist + methomyl): 28 | 48-h mortality Co-Toxicity Factor ([2]; 10 μg synergist + methomyl): 8 | times as effective a synergist of methomyl as PBO ([2]; 24-h mortality, 2 μg synergist): 1.7 | half-life ([3]; acidic conditions): ≤ 4.5 days | Oral LD50 [4]: 5400 (rt) mg compound per kg body weight | inhibition of AChE ([6]; at 1 mM, M. domestica preparation): 11.1 ± 2.9% | LD10 (95% CI) [7, 13]: 3300 (3100–3400) b ng/mg body weight | LD50 (95% CI) [7, 13]: 4300 (4200–4400) b ng/mg body weight | LD90 (95% CI) [7, 13]: 5600 (5300–5900) b ng/mg body weight | times as toxic as fenchone ([7]; at LD10): 2.7 | times as toxic as menthone ([7]; at LD10): 1.6 | times as toxic as fenchone ([7]; at LD50): 3.1 | times as toxic as menthone ([7]; at LD50): 1.6 | times as toxic as fenchone ([7]; at LD90): 3.6 | times as toxic as menthone ([7]; at LD90): 1.6 | 1-h% Mean Knockdown ± SEM, Synergist Alone [9, 14]: 16 ± 11.8% | 24-h% Mean Mortality ± SEM, Synergist Alone [9, 14]: 0 ± 0% | times as potent a synergist of permethrin as PBO ([9]; 24-h mortality): 1.2 | 1-h% Mean Knockdown ± SEM, Mixture ([9]; near-sublethal synergist dose (10.2 μg PBO, 70 μg carvone, 190 μg menthone, 80 μg fenchone) + permethrin 18 ng): 100 ± 0% | 1-h knockdown Co-Toxicity Factor [9, 15]: 3.2 | 24-h mortality Co-Toxicity Factor [9, 15]: 65.6 | Dermal LD50 [10]: >4000 (rt) mg compound per kg body weight | half-life [11]: 0.96 to 1.16 days | 1-h% Mean Knockdown ± SEM, Mixture ([12]; 2 μg synergist + permethrin 0.6 ng/mosquito): 100 ± 0% | 1-h knockdown Co-Toxicity Factor ([12]; 2 μg synergist + permethrin): 23.5 | 24-h mortality Co-Toxicity Factor ([12]; 2 μg synergist + permethrin): 83 | 1-h% Mean Knockdown ± SEM, Synergist Alone ([12]; 2 μg synergist per Ae. aegypti): 5 ± 5% | 24-h% Mean Mortality ± SEM, Synergist Alone ([12]; 2 μg synergist per Ae. aegypti): 5 ± 2.9% | 1-h% Mean Knockdown ± SEM, Mixture ([12]; 10 μg synergist + permethrin 0.6 ng/mosquito): 100 ± 0% | 1-h knockdown Co-Toxicity Factor ([12]; 10 μg synergist + permethrin): 4 | 24-h mortality Co-Toxicity Factor ([12]; 10 μg synergist + permethrin): 76 | 1-h% Mean Knockdown ± SEM, Synergist Alone [12, 16]: 20 ± 5.8% | 24-h% Mean Mortality ± SEM, Synergist Alone [12, 16]: 7.5 ± 2.5% | times as strong a synergist of permethrin as PBO ([12]; 24-h mortality, 2 μg synergist): 3.3
